Assay [1] has as its system P. falciparum proteasome activity in cells (GFP-DD transfectants). Briefly: GFP-DD reporter degradation in transfectants (Western blot, flow cytometry). It counts as cell-based. The settings on record: trophozoites, 3 h exposure. Here is the method: (§1) Figure 1 Structures, proteasome inhibition, and isobologram analysis of selected compounds. (A) Structures of MPI-1, MPI-2, MPI-3, and MPI-4 (compounds 1–4). (B) GFP-DD transfectants were maintained in Shield-1 for 24 h before wash-out prior to setting up experiments. Trophozoites were re-exposed to Shield-1 or exposed to indicated compounds for 3 h. Results are representative of four independent experiments. (i) Cell extracts were analyzed by Western blot using anti-GFP or anti-PfBiP as a loading control. (ii) GFP fluorescence measured by flow cytometry. Dotted line represents background (fluorescence of sample after washout of Shield-1). Data are the mean ± range/2 for the readings in technical duplicate from one experiment. Curves are fitted with the sigmoidal four-parameter model. (C) Isobologram analysis of the interaction of test compounds and DHA. Cam3.II (DHA resistant) parasites at very early ring stages were subjected to 3 h pulses in the presence of different combinations of DHA and test compounds. […]
Trophozoite-stage parasite cultures (GFP-DD parasites) at 5% hematocrit and 5% parasitemia were subjected to the drug treatment indicated in the figure legends at 37 °C. […] Syto-61 and GFP fluorescence was recorded using the FACSCanto II cytometer (Becton Dickinson). […] Parasites were gated based on parasite GFP fluorescence, and values reported are mean fluorescence. […]
In general terms: In western blotting, separated proteins are transferred to a membrane and probed.

The subject of assay [2] is Cam3.II^R539T early ring stages. Nature of the assay: Isobologram analysis of interaction with DHA, 3 h pulse. The format is cell-based, P. falciparum. As to conditions: early ring stages of K13 mutant Cam3.II^R539T, 3 h pulses. Here is the method: as §1, with “experiment.” for “experiment. Curves are fitted with the sigmoidal four-parameter model. (C) Isobologram analysis of the interaction of test compounds and DHA. Cam3.II (DHA resistant) parasites at very early ring stages were subjected to 3 h pulses in the presence of different combinations of DHA and test compounds.”
For standard assays of antiplasmodial activity, sorbitol-treated ring stage parasites were incubated with the drugs for 72 h and viability was assessed in the second cycle.[12] […] Cells were then stained with 2 μM Syto-61 (Thermo Fisher Scientific), and their fluorescence was measured by flow cytometry (FACSCanto II cytometer; Becton Dickinson). Data were gated and analyzed using FCS Express software (version 3) to determine parasitemia of each sample. […] Interactions between DHA and MPI-1 or MPI-4 against the K13 mutant (DHA resistant) Cam3.II P. falciparum strain, exposed to a 3 h pulsed treatment, were determined at 4 h after invasion as described previously.[12]

The target in assay [3] is human constitutive 20S proteasome β2c (Homo sapiens, UniProt P49720+Q99436). Briefly: Kinetic analysis, human constitutive 20S β2 (Ac-RQR-AMC). It counts as biochemical. As to conditions: Figure S3A. Here is the method:
(§2) Figure S 3. Kinetic analysis of MPI -4 against Pf20S and human constitutive 20S proteasome.
(§3) The association rate K on, half -life t 1/2 and equilibrium constant Ki for MPI -4 against human constitutive 20S (A, B) and Pf20S (C, D). 20S β2 (A, C) and β5 (B, D) activities were determined using fluorogenic substrates, Ac -RQR-AMC (human) or Ac -WLR-AMC ( P. falciparum ) and Ac - […]

Assay [4] addresses T1, human constitutive 20S proteasome β5c (Homo sapiens, UniProt P20618+P28074).
T1 construct: Residue positions are calculated at the start of the processed protein, and the first residue (Thr 1)
Briefly: Kinetic analysis, human constitutive 20S β5 (Ac-WLA-AMC). It counts as biochemical. As to conditions: Figure S3B. How it is done: as §2, §3

The target of assay [5] is Pf20S β2 (Plasmodium falciparum, UniProt Q8I261+Q8I6T3). Briefly: Kinetic analysis, Pf20S β2 (Ac-WLR-AMC). The format is biochemical, P. falciparum. The settings on record: Figure S3C. How it is done:
as §2, §3

The target in assay [6] is Pf20S β5 (Plasmodium falciparum, UniProt A0A5K1K7U1+Q8IJT1). Nature of the assay: Kinetic analysis, Pf20S β5 (Ac-WLA-AMC). The format is biochemical, P. falciparum. As to conditions: Figure S3D. How it is done: as §2, §3
Pf20S β5, sequence (Q8IJT1 entry or part of it): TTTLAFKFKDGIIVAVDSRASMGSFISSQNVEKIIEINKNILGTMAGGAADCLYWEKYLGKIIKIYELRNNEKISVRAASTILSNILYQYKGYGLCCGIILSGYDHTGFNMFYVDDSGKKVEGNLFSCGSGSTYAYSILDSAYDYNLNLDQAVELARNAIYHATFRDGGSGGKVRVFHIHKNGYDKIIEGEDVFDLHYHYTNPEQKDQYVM
Pf20S β5, sequence (A0A5K1K7U1 entry or part of it): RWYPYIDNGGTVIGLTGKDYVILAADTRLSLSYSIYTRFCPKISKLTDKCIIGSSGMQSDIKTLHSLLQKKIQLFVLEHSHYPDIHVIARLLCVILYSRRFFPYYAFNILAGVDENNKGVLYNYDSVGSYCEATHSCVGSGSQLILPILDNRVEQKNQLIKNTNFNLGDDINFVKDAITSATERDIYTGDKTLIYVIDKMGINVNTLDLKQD
The test system of assay [7] is 3D7 B2a. Nature of the assay: 72 h viability assay, bortezomib-resistant clone B2a. It counts as cell-based, Plasmodium falciparum. As to conditions: mean ± SEM, n=3. Here is the method:
For standard assays of antiplasmodial activity, sorbitol-treated ring stage parasites were incubated with the drugs for 72 h and viability was assessed in the second cycle.[12] Drug pulse assays were performed as described previously.[47] For short pulse assays, tightly synchronized early ring stage parasites (1–3 h after invasion) at 0.2% hematocrit and 1–2% parasitemia were subjected to 3 h drug pulse at 37 °C and returned to culture until parasites reached trophozoite stage of the following cycle. Cells were then stained with 2 μM Syto-61 (Thermo Fisher Scientific), and their fluorescence was measured by flow cytometry (FACSCanto II cytometer; Becton Dickinson). Data were gated and analyzed using FCS Express software (version 3) to determine parasitemia of each sample. Viability represents the parasitemia normalized to untreated and “kill treated” controls, where “kill treated” refers to samples treated with 2 μM DHA for 48–72 h. Interactions between DHA and MPI-1 or MPI-4 against the K13 mutant (DHA resistant) Cam3.II P. falciparum strain, exposed to a 3 h pulsed treatment, were determined at 4 h after invasion as described previously.[12]
Prior to selection, an aliquot of the parental line was stocked as a reference for subsequent whole genome sequencing analysis. […] Paired-end reads were either aligned to the P. falciparum 3D7 reference genome (PlasmoDB version 13.0).

The test system of assay [8] is Cam3.II^R539T early ring stages. The arrangement: method as in PMID 25901609. As to conditions: P. falciparum in culture; cited from earlier work.

Molecules are shown by their SMILES. Values joined by “and” are separate entries in the source; they are usually repeats but may differ in a detail not shown here. Identical values can stand only once.

Pf20S β2, sequence (Q8I6T3 entry or part of it): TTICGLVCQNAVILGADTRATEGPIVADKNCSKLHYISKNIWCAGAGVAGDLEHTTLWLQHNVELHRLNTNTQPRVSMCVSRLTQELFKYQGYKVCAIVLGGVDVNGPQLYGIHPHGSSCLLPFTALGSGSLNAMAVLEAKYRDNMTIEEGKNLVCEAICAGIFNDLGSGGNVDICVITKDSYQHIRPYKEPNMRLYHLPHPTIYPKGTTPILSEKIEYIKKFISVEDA
Pf20S β2, sequence (Q8I261 entry or part of it): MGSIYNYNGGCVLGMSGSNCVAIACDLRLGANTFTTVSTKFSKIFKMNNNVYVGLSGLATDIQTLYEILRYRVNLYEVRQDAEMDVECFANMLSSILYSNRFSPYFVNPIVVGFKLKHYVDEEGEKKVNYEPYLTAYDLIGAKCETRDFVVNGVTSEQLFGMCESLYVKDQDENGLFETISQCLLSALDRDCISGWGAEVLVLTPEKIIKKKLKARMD

Turning to `CC(=O)N1CCC[C@@H]1C(=O)N[C@@H](C)C(=O)N[C@@H](Cc1ccccc1)B(O)O` [MPI-1], in assay [1], the “inhibition of GFP-DD degradation in the absence of Shield-1” value is reported as “a higher concentration of MPI-1 was needed to produce the same level of inhibition”. Besides, the “interaction with DHA” value in assay [2] is “pronounced synergistic interaction”.

`CC(C)C[C@H](NC(=O)[C@H](Cc1ccccc1)NC(=O)Cc1ccc(O)cc1)B(O)O` [MPI-4]: the off-rate (koff) in assay [3] (read-out: Koff, h20S β2) is 0.00485 s⁻¹; in assay [4] (read-out: Koff, h20S β5) it was 0.000109 s⁻¹; in assay [5] (read-out: Koff, Pf 20S β2), 0.000173 s⁻¹; in assay [6] (read-out: Koff, Pf 20S β5), 0.000181 s⁻¹. The kon in assay [3] (read-out: association rate Kon, h20S β2) is 9960 M⁻¹ s⁻¹; in assay [4] (read-out: association rate Kon, h20S β5) it was 848000 M⁻¹ s⁻¹; in assay [5] (read-out: association rate Kon, Pf 20S β2), 27200 M⁻¹ s⁻¹; in assay [6] (read-out: association rate Kon, Pf 20S β5) it was 41800 M⁻¹ s⁻¹. Also, the inhibition constant (Ki) was 487 nM and 490 nM in assay [3] (equilibrium constant); 0.1 nM in assay [4] (equilibrium constant); around 5 nM in assay [5] (equilibrium constant, read-out: Ki, P. falciparum β2); around 5 nM in assay [6] (equilibrium constant, read-out: Ki, P. falciparum β5). Besides, the “interaction with DHA” value in assay [2] is “pronounced synergistic interaction”.

For `CC(C)C[C@H](NC(=O)[C@H](Cc1ccccc1)NC(=O)c1cnccn1)B(O)O` [bortezomib, reference compound], in assay [7], the “LD50 (72 h), 3D7 B2a” value was determined as 1.1 ± 0.1 µM. The “inhibition of GFP-DD degradation in the absence of Shield-1” value in assay [1] is “prevented GFP-DD degradation”. In addition, the “interaction with DHA (earlier work)” value in assay [8] was “strong synergism”.

What is called koff is the first-order rate constant of dissociation. The term kon denotes a measure of how fast the partners come together. One may read the Ki as the equilibrium dissociation constant of an inhibitor or competing ligand from its target.
